This note sets out measurements from patent US20220354835A1, “COMPOUNDS FOR DEGRADING TAU PROTEIN AGGREGATES AND USES THEREOF” (Aprinoia Therapeutics Limited, priority 2019, published 2022).

In the first test the target is T1, heparin-induced aggregated tau (aTau), full-length 2N4R human Tau (Homo sapiens, UniProt P10636).
T1 construct: transformed with a full-length 2N4R tau expression plasmid; made in house; host or cells: E. coli BL21
T1 sequence (P10636 1-441 isoform P10636-8): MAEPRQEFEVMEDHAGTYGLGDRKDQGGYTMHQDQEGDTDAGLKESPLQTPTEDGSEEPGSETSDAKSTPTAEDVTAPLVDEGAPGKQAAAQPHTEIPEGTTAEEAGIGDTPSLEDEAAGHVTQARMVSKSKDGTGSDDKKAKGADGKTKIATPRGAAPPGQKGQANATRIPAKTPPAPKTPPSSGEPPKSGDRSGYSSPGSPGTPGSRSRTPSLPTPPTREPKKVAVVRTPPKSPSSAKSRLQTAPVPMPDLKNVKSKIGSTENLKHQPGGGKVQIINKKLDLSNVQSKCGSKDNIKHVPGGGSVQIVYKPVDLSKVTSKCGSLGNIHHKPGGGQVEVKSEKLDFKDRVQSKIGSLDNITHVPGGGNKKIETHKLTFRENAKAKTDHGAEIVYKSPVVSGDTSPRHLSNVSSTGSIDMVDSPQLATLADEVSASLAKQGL
Nature of the test: PBB5 competition assay. The class given is binding. As to conditions: 0.12 μM aTau, 0.1 μM PBB5, compound up to 10 μM; read-out: Competition Assay with PBB5: Bmax (%). As to the method: (A) Expression and purification of human Tau: 1 mM IPTG (Sangon Biotech, Cat. No A100487) was used to induce production of tau by bacteria (BL21, Invitrogen, Cat. No C600003) transformed with a full-length 2N4R tau expression plasmid. After 3 hours, cell pellet was resuspended in lysis buffer (100 mM PIPES, 1 mM EGTA, 1 mM MgSO4, pH 6.8) and lysed by sonication followed by centrifugation (15,000 rpm, 15 min, 4° C.). The supernatant was then placed in a boiling water bath for 20 min, followed by centrifugation (15,000 rpm, 15 min, 4° C.). Supernatant was loaded onto a Q-Sepharose® Fast Flow column (GE healthcare, Cat. No 17-0510-01), the flow-through fraction was loaded onto an SP-Sepharose® Fast Flow column (GE healthcare, Cat. No 17-0729-01), and tau protein was eluted with elution buffer (100 mM PIPES, 1 M NaCl, 1 mM EGTA, 1 mM MgSO4, 0.2 M NaCl, pH 6.8). Collected fractions of tau-containing eluates were pooled, concentrated and dialyzed against HEPES buffer (25 mM HEPES, 0.1 mM EDTA, 0.5 mM DTT, 100 mM NaCl, pH 7.2) and stored at −80° C. in small aliquots until use. Protein concentration was determined by UV absorption.
(B) Preparation of heparin-induced aggregated tau (aTau): 2 μM of tau prepared in 30 mM Tris-HCl, pH 7.5 buffer was incubated in tube with 15 μM heparin (Sigma, Cat. No H3149) at 37° C. for 24 hours.
(E) PBBS competition assay: 2 μM of aTau was diluted to 0.12 μM by […] (pH 6.8) and then incubated with 0.1 μM 2-(4-(2-(methylamino)pyridine-5-yl)-1,3-butadiene-1-yl)benzothiazole-6-ol (PBB5) and serially diluted compound (three-fold serial dilution, from 10 to 0.00017 μM) in a 96-well plate (Corning, Cat. No 3573) at 37° C. for 1 hour. Fluorescence intensity (excitation/emission=530/690 nm) of PBB5 was read by microplate spectrometer (EnSpire 2300, PerkinElmer). Percentage of competition was calculated using the following equation: (Max−well of compound alone)/(Max−Min)*100%, where Max=(Tau+PBB5) signals−(buffer+PBB5) signals; and Min=(buffer+PBB5) signals−(buffer+PBB5) signals.
The IC50 value of each compound was calculated with GraphPad Prism software using the “4 Parameter Logistic Model or Sigmoidal Dose-Response Model”:
Y=Bottom+(Top−Bottom)/(1+(IC50/×)^HillSlope)
In the case of `CN(C)c1ccc(-c2ccc(-c3cn4cc(OCCOCCN5C(=O)CCC(N6C(=O)c7ccc(O)cc7C6=O)C5=O)ccc4n3)cc2)c(F)n1` (stereo not drawn) [Compound 160570, 2-[1-[2-[2-[2-[4-[6-(dimethylamino)-2-fluoranyl-pyridin-3-yl]phenyl]imidazo[1,2-a]pyridin-6-yl]oxyethoxy]ethyl]-2,6-bis(oxidanylidene)piperidin-3-yl]-5-oxidanyl-isoindole-1,3-dione], the Emax was determined as 100%.

As to `CN(C)c1ccc2nc(-c3ccc(-c4ccc(NCCOCCN5C(=O)CCC(N6C(=O)c7ccc(O)cc7C6=O)C5=O)nc4)cc3)sc2c1` (stereo not drawn) [Compound 160703, 2-[1-[2-[2-[[5-[4-[6-(dimethylamino)-1,3-benzothiazol-2-yl]phenyl]pyridin-2-yl]amino]ethoxy]ethyl]-2,6-bis(oxidanylidene)piperidin-3-yl]-5-oxidanyl-isoindole-1,3-dione], the Emax is 100%.

The target in a further test is T2, Tau aggregates in P301L-Tau-FL-GFP HEK293 cells (Homo sapiens, UniProt P10636, P618L).
T2 construct: express full-length human tau T40 (2N4R) carrying the P301L mutation with a GFP tag; expressed in transfected cells
T2 sequence (P10636 1-441 isoform P10636-8 P301L): as the sequence (P10636 1-441 isoform P10636-8) above, with P301L counted along it
Put plainly: Tau degradation assay (APNmAb005 ELISA-based Tau aggregation assay). The class given is cell-based. The conditions noted are these: 1 μM compound, APNmAb005 ELISA. On the procedure:
(A). Cell-based model of Tau inclusion formation: Six month old rTg4510 mouse brain lysates were used as the source of tau seeds, prepared as described in Example 26 above. P301L-Tau-FL-GFP HEK293 cells represent HEK293 cells express full-length human tau T40 (2N4R) carrying the P301L mutation with a GFP tag (P301L-Tau-FL-GFP). 1×10^6 of P301L-Tau-FL-GFP HEK293 cells were cultured on a 6-well plate in culture medium containing DMEM/F-12 (Gibco) supplemented with 10% fetal bovine serum (FBS) (Gibco), 1% Penicillin-Streptomycin (Gibco) and 0.5 mg/ml geneticin (Thermo Fisher Scientific) for 24 hours to reach 70-90% confluency, indicating the cells were ready for transfection. 50 μg of 6-month-old rTg4510 mouse brain lysate was diluted in 400 μL of serum free medium and mixed with 16 μL of lipofectamine 3000 reagent (Thermo Fisher Scientific) diluted in 400 μl of serum free medium. A solution mixture of rTg4510 brain lysate and lipofectamine 3000 was incubated at room temperature for 25 min. The culture media were removed, and then a solution mixture of rTg4510 lysate and lipofectamine 3000 was added to the cells for transfection. The solution mixture was incubated at room temperature for five hours, followed by medium change to 10% fetal bovine serum (FBS). After two-day incubation, Tau aggregates (Tau spots) were induced and images were acquired by ImageXpress Micro Confocal high-content imaging system (Molecular Devices) as described in Example 52 above. Analysis was performed by two customized modules in MetaXpress software (Molecular Devices) for aggregated tau analysis. Output included cell numbers, numbers of tau spots, average intensity of tau spots, and average size of tau spots.
(B). Compound treatment: 100 μL of 3×10^4 cells comprising Tau aggregates, prepared as described above in step (A), were plated on a 96-well plate coated with poly-D-lysine (BD Biosciences) and cultured for 24 hours. Compounds to be tested were dissolved in culture medium containing 0.1% DMSO. Each of test compounds in the concentration of 1, 0.2 and 0.04 μM was added to the cells comprising Tau aggregates and incubated at 37° C. for 24 hours. After that, culture medium was removed, cells were washed with PBS solution and then lysed using 30 μL of lysis buffer (PBS containing 0.3% Triton X-100 and 400 mM NaCl) for one hour at 4° C., and then cell lysate was diluted by 170 μl of PBS containing 400 mM NaCl. Cell lysate was filtrated by a […] filtration plate (Pall) and applied for Tau aggregation assay.
(C). Control cell lysate: control cell lysate was collected from non-seeded cells.
(D). ELISA-based Tau aggregation assay: APNmAb005 ELISA kit for Tau aggregation assay was designed and developed to detect abnormal tau aggregates in buffered solution or cell lysate by using anti-Tau APNmab005 as capture and detection antibody. This antibody is a highly specific antibody bound to human tau aggregates accumulated in mammalian cells. APNmAb005 is recited in PCT Patent Application No. PCT/M2020/057415, filed Aug. 5, 2020, which is incorporated herein by reference.
0.15 μg of APNmAb005 in 100 mM sodium carbonate buffer (pH 9.6) was coated on a high-binding polystyrene 96-well microplate (Greiner Bio-One) at 4° C. overnight. The microplate was washed with PBS followed by treatment with Intercept (PBS) blocking buffer (LI-COR) at room temperature for 2 hours. After that, the microplate was washed with PBS, and then the cell lysate with compound treatment, prepared as described above in step (C), was added into each well of the microplate and incubated at room temperature for 2 hours. The microplate was washed with PBS and then incubated with HRP-conjugated secondary antibody APNmAb005 at room temperature for 3 hours. HRP-conjugated secondary antibody APNmAb005 was prepared using HRP conjugation kit (Abcam,ab102890). The microplate was then washed with PBS and incubated with 100 μL of horseradish peroxidase (HRP) substrate at room temperature. […]
With `CN(C)c1ccc(-c2ccc(-c3cn4cccc(OCCOCCOc5ccc6c(c5)CN(C5CCC(=O)NC5=O)C6=O)c4n3)cc2)cn1` (stereo not drawn) [Compound 162842], the “Optical Density (O.D.) 450 value decrease compared to vehicle (reduction of Tau aggregates)” value turned out to be 20%.

The test is the same for the next values; noted with them: 1 μM of compound, 24 hours, P301L-Tau-FL-GFP HEK293 cells seeded with rTg4510 brain lysate; read-out: Activity (reduction of tau aggregates).
Regarding `COc1ccc2nc(-c3ccc(-c4ccc(NCCOCCOc5ccc6c(c5)C(=O)N(C5CCC(=O)NC5=O)C6=O)nc4F)cc3)cn2c1` (stereo not drawn) [Compound 161215, 2-[2,6-bis(oxo)piperidin-3-yl]-5-[2-[2-[[6-fluoro-5-[4-(6-methoxyimidazo[1,2-a]pyridin-2-yl)phenyl]pyridin-2-yl]amino]ethoxy]ethoxy]isoindole-1,3-dione], the inhibition at 1 µM was 10 to 20%.

As for `COc1ccc2nc(-c3ccc(-c4ccnc(NCCOCCOc5ccc6c(c5)CN(C5CCC(=O)NC5=O)C6=O)c4)cc3)cn2c1` (stereo not drawn) [Compound 162640, 3-[6-[2-[2-[[4-[4-(6-methoxyimidazo[1,2-a]pyridin-2-yl)phenyl]pyridin-2-yl]amino]ethoxy]ethoxy]-3-oxidanylidene-1H-isoindol-2-yl]piperidine-2,6-dione], the inhibition at 1 µM lay in the range of 10 to 20%.

With `CN(C)c1ccc2nc(-c3ccc(-c4ccc(NCCOCCOc5ccc6c(c5)CN(C5CCC(=O)NC5=O)C6=O)nc4)cc3C(F)(F)F)sc2c1` (stereo not drawn) [Compound 177031], the inhibition at 1 µM is below 10%.

For the compound `CN(C)c1ccc(-c2ccc(-c3cn4cc(OCCOCCN5C(=O)CCC(N6C(=O)c7ccc(O)cc7C6=O)C5=O)ccc4n3)cc2)c(F)n1` (stereo not drawn) [Compound 170350], the inhibition at 1 µM was 10 to 20%.

For the compound `COc1ccc2nc(-c3ccc(-c4ccc(NCCOCCOCCOCCOCCOCCOc5ccc6c(c5)C(=O)N(C5CCC(=O)NC5=O)C6=O)nc4F)cc3)cn2c1` (stereo not drawn) [Compound 161409], the inhibition at 1 µM lay in the range of 10 to 20%.

For the compound `CN(C)c1ccc(-c2ccc(-c3nc4ccc(OCCOCCOc5ccc6c(c5)CN(C5CCC(=O)NC5=O)C6=O)cc4s3)c(C(F)(F)F)c2)cn1` (stereo not drawn) [Compound 162903], the inhibition at 1 µM was 10 to 20%.

Consider `CN(C)c1ccc(-c2ccc(-c3nc4ccc(OCCOCCOc5ccc6c(c5)CN(C5CCC(=O)NC5=O)C6=O)cc4s3)cc2)cn1` (stereo not drawn) [Compound 163123], for which the inhibition at 1 µM is 10 to 20%.

With `COc1ccc2nc(-c3ccc(-c4ccc(NCCOCCOc5cccc6c5C(=O)N(C5CCC(=O)NC5=O)C6=O)nc4)cc3)sc2c1` (stereo not drawn) [Compound 177038], the inhibition at 1 µM is below 10%.

Consider `CN(C)c1ccc(-c2ccc(-c3nc4ccc(OCCOCCOCCOc5ccc6c(c5)CN(C5CCC(=O)NC5=O)C6=O)cc4s3)c(C(F)(F)F)c2)cn1` (stereo not drawn) [Compound 174251], for which the inhibition at 1 µM was below 10%.

Regarding `CN(C)c1ccc(-c2ccc(-c3cn4cccc(OCCOCCOc5ccc6c(c5)CN(C5CCC(=O)NC5=O)C6=O)c4n3)cc2)cn1` (stereo not drawn) [Compound 162842], the inhibition at 1 µM is above 20%.

Take `CN(C)c1ccc(-c2ccc(-c3nc4ccc(NCCOCCOCCOCCOc5ccc6c(c5)C(=O)N(C5CCC(=O)NC5=O)C6=O)cc4s3)cc2)cn1` (stereo not drawn) [Compound 160939, 2-[2,6-bis(oxo)piperidin-3-yl]-5-[2-[2-[2-[2-[[2-[4-[6-(dimethylamino)pyridin-3-yl]-phenyl]-1,3-benzothiazol-6-yl]amino]ethoxy]ethoxy]ethoxy]ethoxy]isoindole-1,3-dione]: the inhibition at 1 µM was below 10%.

Consider `CN(C)c1ccc(-c2ccc(-c3nc4ccc(OCCOCCOc5ccc6c(c5)CN(C5CCC(=O)NC5=O)C6=O)cc4o3)cc2)cn1` (stereo not drawn) [Compound 163365], for which the inhibition at 1 µM was in the range of 10 to 20%.
